# Assays:
# CD4+ T cells = experiment: Foxp3+ Treg differentiation of CD4+ T cells in vitro; type: cell-based, mouse
# Method: T cells were isolated from spleens of tumour-bearing mice by negative selection using magnetic cell separation (EasySep mouse T cell isolation kit, CD8+ T cell isolation kit or CD4+ CD25+ Regulatory T cell Isolation Kit II; STEMCELL Technologies, Vancouver, Canada). Isolated T cells were cultured in Roswell Park Memorial Institute 1640 medium supplemented with 10% FBS, 50 μM β-mercaptoethanol, 10 ng/ml mouse recombinant interleukin-2 (IL-2), 0.1 ng/mL transforming growth factor β (TGFβ) and activated with Dynabeads mouse anti-CD3/CD28 beads (Thermo Fisher Scientific, Waltham, MA) for 72 hours. Cells were then collected for analysis.
# CT26 = experiment: ICA model in CT26 syngeneic mice with anti-PD1 and Kyn supplementation; type: in vivo, mouse; details: Kyn 10 mg/kg i.p. twice weekly
# Method: For indolecarboxylic acid (ICA) model, ICA (18 mg/kg, Sigma-Aldrich, St. Louis, MO) was gavaged to mice daily. Tumour inoculation and dosing schedule of anti-PD1 or isotype control is the same as described above. After the outgrowth of palpable tumours, kynurenine (Kyn, 10 mg/kg, Sigma-Aldrich) was intraperitoneally injected into mice twice weekly.
# human AHR protein = target: T1, human AHR protein (Homo sapiens, UniProt P35869); experiment: biochemical; type: binding
# T1 sequence (P35869 11-848): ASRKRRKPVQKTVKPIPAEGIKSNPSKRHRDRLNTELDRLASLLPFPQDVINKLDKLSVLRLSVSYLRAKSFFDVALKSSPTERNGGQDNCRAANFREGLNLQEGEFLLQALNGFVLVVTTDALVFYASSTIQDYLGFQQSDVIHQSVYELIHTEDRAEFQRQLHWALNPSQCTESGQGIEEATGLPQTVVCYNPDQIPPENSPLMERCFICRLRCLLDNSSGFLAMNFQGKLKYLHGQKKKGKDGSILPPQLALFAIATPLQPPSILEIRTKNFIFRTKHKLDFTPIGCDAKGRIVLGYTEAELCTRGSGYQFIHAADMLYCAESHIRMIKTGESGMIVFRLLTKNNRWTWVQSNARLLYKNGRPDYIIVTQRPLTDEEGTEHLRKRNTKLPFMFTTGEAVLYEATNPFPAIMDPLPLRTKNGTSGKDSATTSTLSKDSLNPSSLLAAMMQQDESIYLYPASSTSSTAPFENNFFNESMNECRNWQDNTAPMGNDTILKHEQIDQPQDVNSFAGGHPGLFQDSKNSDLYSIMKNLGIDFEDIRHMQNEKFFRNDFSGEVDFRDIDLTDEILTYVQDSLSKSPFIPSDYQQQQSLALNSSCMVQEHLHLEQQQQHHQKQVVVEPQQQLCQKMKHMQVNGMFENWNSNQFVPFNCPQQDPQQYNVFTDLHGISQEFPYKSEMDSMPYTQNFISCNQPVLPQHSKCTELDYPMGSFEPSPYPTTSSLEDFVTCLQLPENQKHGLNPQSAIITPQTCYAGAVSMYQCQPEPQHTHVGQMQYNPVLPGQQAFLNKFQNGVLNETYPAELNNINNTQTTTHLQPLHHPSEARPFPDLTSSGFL
# Excerpt: We also performed the surface plasma resonance (SPR) assay to explore the interaction between ICA/Kyn with the human AHR receptor. […] These support our hypothesis that ICA displaces Kyn from AHR receptor and inhibited Kyn-mediated Treg differentiation through receptor competition.
# MC-38 = experiment: MC38 rectum orthotopic tumour model; type: in vivo, mouse
# Method: A MSI type mouse CRC cell line, MC-38 cell mix [5×10^5 cells in 10 μL Matrigel (354248, Corning, Manassas, US) per mouse] was orthotopically implanted into the rectum of C57BL/6. […] RMP1-14, Bio X Cell, West Lebanon, US) or control IgG (100 μg per mouse, BP0089, Colone: 2A-3, Bio X Cell) was injected intraperitoneally into MC-38 bearing mice, and followed by total five injections with three days interval one week after MC38 implantation. For tumour-infiltrating immune cell analysis, tumour from MC-38 and CT-26 bearing rectal orthotopic mouse models was minced on ice and digested in PBS buffer containing 0.5 mg/mL collagenase IV and 0.25 mg/ml DNase I at 37° C. for 30 min. After digestion, tumour tissue was filtered through a 70 μm cell strainers, and then distributed into different panels. For the surface staining of MDSC, cells were stained with Brilliant Violet 605 anti-mouse CD45 antibody (30-F11) (103140, BioLegend), PerCP/Cyanine5.5 anti-mouse/human CD11b antibody (M1/70) (101228, BioLegend), PE anti-mouse Ly-6G/Ly-6C (Gr-1) antibody (RB6-8C5). MDSC was gated in CD45^+ CD11b^+ Gr-1^+. For CD8 functional markers staining, the procedures were similar with the in vitro T cell analysis. Antibodies used for staining are as following: Brilliant Violet 605 anti-mouse CD45 antibody (30-F11) (103140, BioLegend), PE anti-mouse CD3 antibody (17A2) (100206, BioLegend), Brilliant Violet anti-mouse CD8a antibody (53-6.7) (100738, BioLegend), PE/Cyanine5 anti-mouse CD4 antibody (GK1.5) (100410, BioLegend), PE/Cyanine7 anti-human/mouse Granzyme B recombinant antibody (QA16A02) (372214, BioLegend), FITC anti-mouse IFN-γ antibody (XMG1.2) (505806, BioLegend), Brilliant Violet 711 anti-moue TNF-α (MP6-XT22) (506349, BioLegend). Flow Cytometry was performed on FACSAria cell sorter (BD Biosciences, Franklin Lakes, US). Data was analyzed by FlowJo 10.4.
# CT-26 = experiment: CT26 rectum orthotopic tumour model; type: in vivo, mouse
# Excerpt: CT-26 tumour-bearing BALB/c mice with the same setting and treatment of MC-38 orthotopic model was developed to evaluate the efficacy of αPD-1 antibody immunotherapy on microsatellite stable (MSS)-type colorectal cancer. All experimental procedures were approved by the Chinese University of Hong Kong Animal Ethics Committee.
# For tumour-infiltrating immune cell analysis, tumour from MC-38 and CT-26 bearing rectal orthotopic mouse models was minced on ice and digested in PBS buffer containing 0.5 mg/mL collagenase IV and 0.25 mg/ml DNase I at 37° C. for 30 min. After digestion, tumour tissue was filtered through a 70 μm cell strainers, and then distributed into different panels. For the surface staining of MDSC, cells were stained with Brilliant Violet 605 anti-mouse CD45 antibody (30-F11) (103140, BioLegend), PerCP/Cyanine5.5 anti-mouse/human CD11b antibody (M1/70) (101228, BioLegend), PE anti-mouse Ly-6G/Ly-6C (Gr-1) antibody (RB6-8C5). MDSC was gated in CD45^+ CD11b^+ Gr-1^+. For CD8 functional markers staining, the procedures were similar with the in vitro T cell analysis. Antibodies used for staining are as following: Brilliant Violet 605 anti-mouse CD45 antibody (30-F11) (103140, BioLegend), PE anti-mouse CD3 antibody (17A2) (100206, BioLegend), Brilliant Violet anti-mouse CD8a antibody (53-6.7) (100738, BioLegend), PE/Cyanine5 anti-mouse CD4 antibody (GK1.5) (100410, BioLegend), PE/Cyanine7 anti-human/mouse Granzyme B recombinant antibody (QA16A02) (372214, BioLegend), FITC anti-mouse IFN-γ antibody (XMG1.2) (505806, BioLegend), Brilliant Violet 711 anti-moue TNF-α (MP6-XT22) (506349, BioLegend). Flow Cytometry was performed on FACSAria cell sorter (BD Biosciences, Franklin Lakes, US). Data was analyzed by FlowJo 10.4.
# CD8+ T cells = experiment: Cytotoxic CD8+ T cell markers, T cells from human PBMC; type: cell-based; details: TH1020 with butyrate
# Method: T cells isolated from healthy human peripheral blood mononuclear cells (PBMC) using immunomagnetic negative selection kit (17951, Stemcell Technologies, Vancouver, CA). Isolated T cells were then cultured in complete RPMI-1640 medium supplied with human CD3/CD28 magnet beads (11161D, Thermo Fisher Scientific, Waltham, US) and 30 U/ml recombinant human IL-2 (589104, BioLgend, San Diego, US) for expiation and activation for three days. Mouse T cells were isolated from the spleen of naïve mice and purified with Mouse T cell isolation kit (19851, Thermo Fisher Scientific, Waltham, US), cultured in complete RPMI-1640 medium with mouse CD3/CD28 beads (11456D, Thermo Fisher Scientific, Waltham, US) and 30 U/ml recombinant mouse IL-2 (575404, BioLegend, San Diego, US).
# Cytotoxic CD8+ T cell markers Granzyme B, IFN-γ, TNF-α under the in vitro treatments of R.i CM, NaBu or TLR5 inbibitor TH1020 (HY-116961, MedChemExpress, Monmouth Junction, US) were analyzed with flow cytometry. Isolated human T cells were stimulated with 30 ng/ml PMA, 1 μg/ml ionomycin and 2.5 μg/ml monensin in complete RPMI-1640 medium at 37° C. for 4 hours. […]
# NF-κB = experiment: Phospho-NF-κB p65 in activated Jurkat E6.1 T cells; type: cell-based, human; details: TH1020
# Method: Phospho-NF-κB p65 (Ser536) Rabbit mAb (3033, Cell Signalling Technology, Danvers, US, 1:1000) and NF-κB p65 (D14E12) Rabbit mAb (8242, Cell Signalling Technology, Danvers, US, 1:1000) were used to measure NF-κB nuclear translocation in αCD3/αCD28/IL2 activated Jurkat E6.1 T cells.
# Normal human epithelial cell NCM460, human CRC cell lines HCT116, LoVo, SW480, and mouse CRC cell lines MC38 and CT26 were cultured in Dulbecco's Modified Eagle's Medium (DMEM) with 10% fetal bovine serum (FBS) and 1% penicillin-streptomycin (P/S). Jurkat E6.1 (TIB-152, ATCC) was cultured in RPMI-1640 supplied with 10% FBS and 1% penicillin-streptomycin and activated in 3 μg/ml anti-CD3 (300332, BioLgend, San Diego, US), 5 μg/ml anti-human CD28 (302934, BioLgend, San Diego, US) and 100 IU/ml recombinant human IL-2 (589104, BioLgend, San Diego, US) pre-coated wells for 3 days.
# [1] = treatment alone vs αPD-1 therapy and control groups
structure (smiles),measurement,setting,value
"Cc1ccccc1N=Nc1ccc(NC(=O)c2ccnn2C)c(C)c1 [CH-233191, reference compound]",Kyn and ICA effects on Treg differentiation,CD4+ T cells; CH-233191 10 μM,abolished both Kyn and ICA effects in mediating Treg differentiation
"O=Cc1c[nH]c2ccccc12 [IAld, indole-3-carboxaldehyde, reference compound]","Treg differentiation, treatment alone","CD4+ T cells; naïve CD4+ T cells, without Kyn",none significantly affected Treg differentiation
"Nc1ccccc1C(=O)CC(N)C(=O)O (centres unmarked) [Kyn, Kynurenine, reference compound]",Treg differentiation,"CD4+ T cells; Kyn 50 μM, P<0.0001",significantly induced Treg differentiation
same,effect of Kyn supplementation on ICA immune effects,CT26,also reversed by Kyn supplementation
same,effect of Kyn supplementation on ICA tumour effect,CT26,reversed the effect of ICA
same,Kd,human AHR protein,61 µM
"CCCC(=O)[O-].[Na+] [NaBu, sodium butyrate]",efficiency of αPD-1 therapy in combination,MC-38; combination of αPD-1 with R.i or NaBu,did not enhance the efficiency of αPD-1 therapy
same,MC38 orthotopic tumour growth,"MC-38; monotreatment, R.i 1×10^8 CFU daily gavage, 150 mM NaBu in drinking water, αPD-1 100 μg per mouse",inhibited MC38 orthotopic tumour growth
same,"Granzyme B+, IFN-γ+ and TNF-α+ CD8+ T cells","MC-38; mouse, in vivo",increased
same,MDSCs,"MC-38; mouse, in vivo",decreasing MDSCs
same,tumour infiltrating CD8+ T cells,"MC-38; mouse, in vivo",increased infiltrating CD8^+ T cells
same,anti-tumour effects in combination with anti-PD-1,CT-26; combination with anti-PD-1,further heightened the anti-tumour effects
same,infiltrating and cytotoxic CD8+ T cells in combination with anti-PD-1,CT-26; combination with anti-PD-1,additional effects on these immune cells
same,proportion of MDSCs in tumours,CT-26; monotherapy,reduced the proportion of MDSCs in tumours
same,"Granzyme B+, IFN-γ and TNF-α+ CD8+ T cells",CT-26; monotreatment,significantly increased
same,proportion of infiltrating CD8+ T cells,CT-26; monotreatment,significantly increased
same,tumour size,CT-26; [1],still reduced
same,tumour weight,CT-26; [1],still reduced
"c1ccc(Cn2c(Sc3ncnc4c3sc3ncccc34)nnc2-c2ccncc2)cc1 [TH1020, reference compound]","butyrate promotion of Granzyme B, IFN-γ and TNF-α in CD8+ T cells under TLR5 antagonist",CD8+ T cells,"abolished the effective promotion of butyrate on Granzyme B, IFN-γ and TNF-α in CD8+ T cells"
same,R.i CM- and butyrate-induced phospho-NF-κB under TLR5 antagonist,NF-κB,inhibited by Th1020

# Source: US20240366693A1, “COMPOSITIONS FOR ENHANCING IMMUNOTHERAPY EFFICACY IN COLORECTAL CANCER TREATMENT” (The Chinese University of Hong Kong, priority 2023, published 2024)
